These results are taken from US11554106B2, “Prevention of the risks associated with drug-induced QT interval prolongation by using a specific inhibitor of the production of ROS of miochondrial origin” (priority 2017, dated 2023).

The test system of one data set is QT and QTc intervals. As to the kind of experiment: Moxifloxacin-induced QT prolongation in dogs (single-dose cross-over, telemetry ECG). The format is in vivo, male Beagle dogs. The method, then:
Principle: This is a single-dose study in dogs to examine the protective effect of ATT on QT prolongation induced by the intravenous (IV) injection of a dose of moxifloxacin, which is considered the reference substance (positive control).
Methodology: This is a cross-over and single-dose study conducted on 4 groups of 4 male Beagle dogs receiving, depending on the group: • Group 1—control group: intraperitoneal injection [i.p.] of the ATT vehicle; • Group 2—ATT, 5 mg/kg, administered i.p.; • Group 3—moxifloxacin, 15 mg/kg, administered as a slow IV injection in 5% lactic acid at 0.5 mL/kg; and • Group 4—an ATT dose of 5 mg/kg is injected i.p. 30 minutes before a slow IV dose of moxifloxacin of 15 mg/kg (see above).
In this study, each dog is equipped with an implantable teletransmitter of the “DSI radio-telemetry transmitter” type allowing continuous ECG recording over 24 hours in 10-minute sequences, including the measurement of PQ, QRS, QT and QTc spaces (correction according to the Van de Water formula), heart rate as well as systolic and diastolic BP and mean BP. ECG analysis is performed using Notocord Systems® ECG51a software and BP analysis using APR30a software, also from Notocord Systems®.

Data set [1] has as its system 1Q site of the respiratory chain. The note with it: cited from earlier work.
Data set [2] deals with acute organochlorine poisoning. The data set can be described thus: Treatment of a cat with acute organochlorine poisoning. The data set is classed as in vivo. The note with it: one cat, unpublished experiment. An excerpt: Knowing that when ROS are overexpressed by mitochondria, this induces a simultaneous overproduction of cytosolic ROS, whose production source is NADPH oxidase (or NOX, usually NOX4 and NOX2), some authors conclude that NOX are the first responsible when in fact mitochondrial production is the culprit (Gosh R. et al., J. Clin. Diagn. Res., 2017, 11: BC09-BC12; Mangum L. C. et al., Chem. Res. Toxicol, 2015, 28: 570-584).

The next data set concerns QTcF interval. The data set can be described thus: TQT study of moxifloxacin-induced QT prolongation in healthy volunteers. The data set is classed as in vivo, humans. The note with it: 75 mg ATT oral 60 minutes before 400 mg oral moxifloxacin. The method, then:
Principle: Following the 2005 ICH E14 recommendation (FDA, 2005), a TQT study (“through QT study”) was conducted in healthy volunteers to evaluate the protective effect of ATT on QT prolongation induced by a single oral dose of 400 mg moxifloxacin.
Methodology: This was a single-dose, cross-over study conducted in healthy volunteers.
The volunteers, 16 men aged 18 to 40, were selected based on the following criteria: medical history, physical examination (including a BMI between 18 and 26 kg/m2), vital signs, clinical examinations, biological check-up and 12-lead ECG.
The selected volunteers were equipped with a Holter ECG for a 24-hour recording.
Four sequences were tested with a 7-day wash-out period between each: • 1st sequence—no treatment was given; • 2nd sequence—each volunteer received a 400 mg oral dose of moxifloxacin; • 3rd sequence—each volunteer took 75 mg of ATT by mouth (3 tablets of Sulfarlem® 25); and • 4th sequence—each volunteer received a 400 mg oral dose of moxifloxacin, 60 minutes after an oral dose of 75 mg ATT (3 tablets of Sulfarlem® 25). […]

The next data set deals with tenocytes. The note with it: pre-incubation of tenocytes with ATT at 10 μM for 3 hours; oxidative stress induced by FQ (ciprofloxacin, ofloxacin, pefloxacin); cited from earlier work.
The subject of the next data set is human Jurkat T cells. As to conditions: cited from earlier work.
The conditions of data set [3]: rats; cited from earlier work.
The conditions of data set [4]: 70 years marketed in France; cited from earlier work.
The conditions of data set [5]: marketed form; cited from earlier work.

For the molecule `COc1c(N2C[C@@H]3CCCN[C@@H]3C2)c(F)cc2c(=O)c(C(=O)O)cn(C3CC3)c12` [moxifloxacin], the “QT and QTc intervals” value in the data set with QT and QTc intervals (moxifloxacin 15 mg/kg slow IV alone) is recorded as “significantly increased”.

As to `O=[N+]([O-])c1ccc(Oc2ccc(S(=O)(=O)NC3CCCCC3)cc2)cc1` [NC-POBS, N-cyclohexyl-4-(4-nitrophenoxy)benzenesulfonamide], in data set [1], the “specific inhibition of mitochondrial ROS production” value is given as “specific inhibitor of mitochondrial ROS production”.

Regarding `COc1ccc(-c2cc(=S)ss2)cc1` [ATT, 5-(4-methoxyphenyl)-3H-1,2-dithiole-3-thione], the “outcome of treatment of acute organochlorine poisoning” value in [2] was “successfully treated”. Further, the “QT and QTc intervals” value in the data set on QT and QTc intervals (ATT 5 mg/kg i.p. 30 minutes before moxifloxacin 15 mg/kg slow IV) is on record as “maintained in the normal range”. Moreover, in the data set with QTcF interval, the “upper limit of the confidence interval of the effect of moxifloxacin on the QTcF interval” value was “less than 10 msec”. Also, the “cellular production of ROS” value in the data set on tenocytes is recorded as “significantly reduces”. Besides, the “free radical scavenger and antioxidant activity” value in the data set on human Jurkat T cells was “powerful free radical scavenger and antioxidant”. In addition, the Vd entry in data set [3] is recorded as “about 2 L/kg”. Moreover, the “side effects relating to long-term use” value in data set [4] is “no side effects have been reported”.

On to `Oc1ccc(-c2cc(=S)ss2)cc1` [ATX, 4-OH-anethole trithione], for which the “circulating product found after oral administration of ATT” value in [5] is reported as “most of the circulating product found is ATX”. Also, the solubility in water entry in “Solubility in water” is reported as “insoluble in water”.
